Reference: patent US9346761B2, “Arginine methyltransferase inhibitors and uses thereof” (Epizyme, Inc., priority 2013, dated 2016)
Like-named read-outs stand apart in the source and are kept apart here.

Key:
[1] = test system: mono-methyl arginine in RKO cells; experiment: RKO methylation assay, In Cell Western for mono-methyl arginine and DNA content; assay type: cell-based; conditions: Homo sapiens
Full-length human PRMT3 = molecular target: T1, Full-length human PRMT3 (Homo sapiens, UniProt O60678); experiment: PRMT3 biochemical assay (3H-SAM Flashplate, peptide substrate)
T1 construct: GST-tagged PRMT3; made in house; host or cells: E. coli BL21(DE3) Gold (pGEX-KG)
Description: General Materials. S-adenosylmethionine (SAM), S-adenosylhomocysteine (SAH), bicine, Tween20, dimethylsulfoxide (DMSO), bovine skin gelatin (BSG),), isopropyl-β-D-thiogalactopyranoside (IPTG), and Tris(2-carboxyethyl)phosphine hydrochloride solution (TCEP) were purchased from Sigma-Aldrich at the highest level of purity possible. ^3H-SAM was purchase from American Radiolabeled Chemicals with a specific activity of 80 Ci/mmol. 384-well streptavidin Flashplates were purchased from PerkinElmer.
Substrates. Peptide containing the classic RMT substrate motif was synthesized with an N-terminal linker-affinity tag motif and a C-terminal amide cap by 21st Century Biochemicals. The peptide was purified by high-performance liquid chromatography (HPLC) to greater than 95% purity and confirmed by liquid chromatography mass spectrometry (LC-MS). The sequence was Biot-Ahx-[…]-amide (SEQ ID NO.:11).
Molecular Biology: : Full-length human PRMT3 (NM_005788.3) isoform 1 transcript clone was amplified from an HEK 293 cDNA library and subcloned into pGEX-KG (GE Life Sciences). The resulting construct encodes an N-terminal GST tag and a thrombin cleavage sequence ([…] […] […] […]) (SEQ ID NO.:12) fused directly to Cys 2 of PRMT3.
Protein Expression. E. coli (BL21(DE3) Gold, Stratagene) made competent by the CaCl2 method were transformed with the PRMT3 construct and ampicillin selection. Protein over-expression was accomplished by growing the PRMT3 expressing E. coli clone and inducing expression with 0.3 mM IPTG at 16° C. The culture was grown for 12 hours, harvested by centrifugation, and stored at −80° C. for purification.
Protein Purification. […] GST-tagged PRMT3 eluted with 25-400 mM phosphate in buffer C. Protein was concentrated and buffer was exchanged to 20 mM Tris, 150 mM NaCl, 5% glycerol, 5 mM β-mercaptoethanol, pH7.8 by ultrafiltration. The purity of recovered protein was 70%.
General Procedure for PRMT3 Enzyme Assays on Peptide Substrates. The assays were all performed in a buffer consisting of 20 mM Bicine (pH=7.6), 1 mM TCEP, 0.005% BSG, and 0.002% Tween 20, prepared on the day of use. Compounds in 100% DMSO (1 ul) were spotted into a polypropylene 384-well V-bottom plates (Greiner) using a Platemate Plus outfitted with a 384-channel head (Thermo Scientific). DMSO (1 ul) was added to Columns 11, 12, 23, 24, rows A-H for the maximum signal control and 1 ul of SAH, a known product and inhibitor of PRMT3, was added to columns 11, 12, 23, 24, rows I-P for the minimum signal control. A cocktail (40 ul) containing the PRMT3 enzyme was added by Multidrop Combi (Thermo-Fisher). The compounds were allowed to incubate with PRMT3 for 30 min at room temperature, then a cocktail (10 ul) containing SAM and peptide was added to initiate the reaction (final volume=51 ul). The final concentrations of the components were as follows: PRMT3 was 0.5 nM, ^3H-SAM was 100 nM, non-radiolabeled SAM was 1.8 uM, peptide was 330 nM, SAH in the minimum signal control wells was 1 mM, and the DMSO concentration was 2%. The assays were stopped by the addition of potassium chloride (10 ul) to a final concentration of 100 mM. 50 ul of the reaction in the 384-well polypropylene plate was then transferred to a 384-well Flashplate and the biotinylated peptides were allowed to bind to the streptavidin surface for at least 1 hour before being washed once with 0.1% Tween20 in a Biotek ELx405 plate washer. The plates were then read in a PerkinElmer TopCount plate reader to measure the quantity of ^3H-labeled peptide bound to the Flashplate surface, measured as disintegrations per minute (dpm) or alternatively, referred to as counts per minute (cpm).
Where dpm=disintegrations per minute, cmpd=signal in assay well, and min and max are the respective minimum and maximum signal controls.
Where top and bottom are the normally allowed to float, but may be fixed at 100 or 0 respectively in a 3-parameter fit. […]

[2] = In Cell Western, RKO cells, 72 hours, percent activation of mono-methyl arginine signal, read-out: EC30

T1 sequence (O60678 with tags, fused parts or gaps): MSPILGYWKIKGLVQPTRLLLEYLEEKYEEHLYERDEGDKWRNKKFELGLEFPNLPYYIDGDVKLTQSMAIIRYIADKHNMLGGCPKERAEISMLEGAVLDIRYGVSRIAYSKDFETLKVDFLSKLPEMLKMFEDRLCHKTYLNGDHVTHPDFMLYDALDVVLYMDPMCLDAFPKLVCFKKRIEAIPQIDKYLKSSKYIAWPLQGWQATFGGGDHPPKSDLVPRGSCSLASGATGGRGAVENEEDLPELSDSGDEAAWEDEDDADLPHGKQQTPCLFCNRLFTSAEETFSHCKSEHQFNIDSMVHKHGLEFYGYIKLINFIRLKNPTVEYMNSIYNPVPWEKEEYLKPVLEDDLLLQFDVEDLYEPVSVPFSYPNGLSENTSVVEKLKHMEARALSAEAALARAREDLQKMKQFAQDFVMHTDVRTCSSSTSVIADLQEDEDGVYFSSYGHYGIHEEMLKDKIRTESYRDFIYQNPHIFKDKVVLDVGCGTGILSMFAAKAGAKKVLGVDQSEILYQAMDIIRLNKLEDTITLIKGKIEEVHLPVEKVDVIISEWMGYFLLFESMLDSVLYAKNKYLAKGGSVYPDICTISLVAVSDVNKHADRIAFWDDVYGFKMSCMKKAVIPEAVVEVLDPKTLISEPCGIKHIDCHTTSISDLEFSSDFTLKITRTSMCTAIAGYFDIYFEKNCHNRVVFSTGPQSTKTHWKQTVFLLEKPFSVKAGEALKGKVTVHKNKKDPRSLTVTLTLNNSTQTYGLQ

| Structure (SMILES) | EC30 [1, 2] [µM] | IC50 (Full-length human PRMT3) [µM] | EC30 ([1]; RKO, 72 h) [µM] |
| --- | --- | --- | --- |
| COCCn1cc(CN(C)CCN)c(-c2ccc(F)cc2)n1 [Compound 5] | > 12 | > 10 |  |
| COCCn1ncc(CN(C)CCN)c1-c1ccc(F)cc1 [Compound 6] | > 12 | > 10 |  |
| CCn1ncc(CN(C)CCNC)c1-c1ccc(F)cc1 [Compound 7] | 3.01 to 12 | > 10 |  |
| CCn1cc(CN(C)CCNC)c(-c2ccc(F)cc2)n1 [Compound 8] | > 12 | > 10 |  |
| CN(CCN)Cc1c[nH]nc1-c1ccc(Cl)cc1 [Compound 95] | < 3 | 1.01 to 3 |  |
| CN(CCN)Cc1c[nH]nc1-c1ccc(OCC(F)(F)F)cc1 [Compound 96] | < 3 | 3.01 to 10 |  |
| CC(C)Oc1ccc(-c2n[nH]cc2CN(C)CCN)cc1F [Compound 97] |  | 3.01 to 10 | < 3 |
| CN(CCN)Cc1c[nH]nc1-c1ccc(C2CCOCC2)cc1 [Compound 98] | < 3 | 0.101 to 1 |  |
| CN(CCN)Cc1c[nH]nc1-c1ccc(F)cc1F [Compound 99] | 3.01 to 12 | > 10 |  |
| CN(CCN)Cc1n[nH]cc1-c1ccc(C#N)cc1 [Compound 100] | < 3 | 3.01 to 10 |  |
| CC(C)c1ccc(-c2c[nH]nc2CN(C)CCN)cc1 [Compound 101] |  | > 10 | 3.01 to 12 |
| CN(CCN)Cc1n[nH]cc1-c1ccc(Cl)cc1 [Compound 102] | < 3 | 3.01 to 10 |  |
| CN(CCN)Cc1n[nH]cc1-c1ccc(C(F)(F)F)cc1 [Compound 103] | 3.01 to 12 | > 10 |  |
| CN(CCN)Cc1n[nH]cc1-c1ccc(C2CC2)cc1 [Compound 104] | 3.01 to 12 | > 10 |  |
| CN(CCN)Cc1n[nH]cc1-c1ccc(OC(F)(F)F)cc1 [Compound 105] | < 3 | 3.01 to 10 |  |
| CN(CCN)Cc1c[nH]nc1-c1cc(F)ccc1Cl [Compound 106] | > 12 | > 10 |  |
| COc1ccc(-c2n[nH]cc2CN(C)CCN)c(F)c1 [Compound 107] | > 12 | 3.01 to 10 |  |
| Cc1ccc(-c2n[nH]cc2CN(C)CCN)c(F)c1 [Compound 108] | > 12 | 3.01 to 10 |  |
| COc1ccccc1-c1n[nH]cc1CN(C)CCN [Compound 109] | > 12 | > 10 |  |
| Cc1cc(C#N)ccc1-c1n[nH]cc1CN(C)CCN [Compound 110] | > 12 | 3.01 to 10 |  |
| CN(CCN)Cc1c[nH]nc1-c1cc(F)cc(F)c1 [Compound 111] | > 12 | 3.01 to 10 |  |
| CC(=O)c1cccc(-c2n[nH]cc2CN(C)CCN)c1 [Compound 112] | > 12 | 3.01 to 10 |  |
| CN(CCN)Cc1cnn(CC(O)CO)c1-c1ccc(F)cc1 (stereo not shown) [Compound 113] | > 12 | > 10 |  |
| CN(CCN)Cc1c[nH]nc1-c1ccc(OC2CC2)cc1 [Compound 114] | < 3 | 3.01 to 10 |  |
| CC(O)c1ccc(-c2n[nH]cc2CN(C)CCN)cc1 (stereo not shown) [Compound 115] | > 12 | 3.01 to 10 |  |

| Structure (SMILES) | EC30 [1, 2] [µM] | IC50 (Full-length human PRMT3) [µM] | EC30 ([1]; RKO, 72 h) [µM] |
| --- | --- | --- | --- |
| CN(CCN)Cc1c[nH]nc1-c1ccc(C2CC2)cc1 [Compound 116] | < 3 | 1.01 to 3 |  |
| CN(CCN)Cc1c[nH]nc1-c1ccc(C(F)(F)F)c(Cl)c1 [Compound 117] | < 3 | 1.01 to 3 |  |
| CN(CCN)Cc1c[nH]nc1-c1ccc(Cl)c(F)c1 [Compound 118] | < 3 | 1.01 to 3 |  |
| CN(CCN)Cc1n[nH]cc1-c1ccc(OC2CC2)cc1 [Compound 119] | 3.01 to 12 | 3.01 to 10 |  |
| CN(CCN)Cc1c[nH]nc1-c1cc(F)cc(Cl)c1 [Compound 121] | < 3 | 1.01 to 3 |  |
| CN(CCN)Cc1c[nH]nc1-c1cccc(Cl)c1 [Compound 122] | 3.01 to 12 | 3.01 to 10 |  |
| CN(CCN)Cc1c[nH]nc1-c1cccc(Cl)c1F [Compound 123] | < 3 | 3.01 to 10 |  |
| CN(CCN)Cc1c[nH]nc1-c1ccc(F)c(Cl)c1 [Compound 124] | < 3 | 1.01 to 3 |  |
| COc1ccc(-c2n[nH]cc2CN(C)CCN)cc1Cl [Compound 125] |  | 3.01 to 10 | < 3 |
| Cc1ccc(-c2n[nH]cc2CN(C)CCN)cc1Cl [Compound 126] | < 3 | 1.01 to 3 |  |
| COc1cc(Cl)cc(-c2n[nH]cc2CN(C)CCN)c1 [Compound 127] | 3.01 to 12 | 3.01 to 10 |  |
| CN(CCN)Cc1cn(CC2CCOCC2)nc1-c1ccc(F)cc1 [Compound 128] | > 12 | > 10 |  |
| Cc1c(F)cccc1-c1n[nH]cc1CN(C)CCN [Compound 129] | 3.01 to 12 | 3.01 to 10 |  |
| COc1cccc(-c2n[nH]cc2CN(C)CCN)c1 [Compound 130] | 3.01 to 12 | 3.01 to 10 |  |
| Cc1cccc(-c2n[nH]cc2CN(C)CCN)c1 [Compound 131] | < 3 | 3.01 to 10 |  |
| CN(CCN)Cc1c[nH]nc1-c1ccc(Cl)cc1F [Compound 132] |  | 3.01 to 10 | < 3 |
| Cc1cc(Cl)ccc1-c1n[nH]cc1CN(C)CCN [Compound 133] | < 3 | 3.01 to 10 |  |
| COc1ccc(-c2n[nH]cc2CN(C)CCN)cc1F [Compound 134] | < 3 | 3.01 to 10 |  |
| CN(CCN)Cc1c[nH]nc1-c1ccc(C(F)(F)F)cc1Cl [Compound 135] | 3.01 to 12 | > 10 |  |
| CCNC(=O)c1ccc(-c2n[nH]cc2CN(C)CCN)cc1 [Compound 136] | > 12 | > 10 |  |
| CN(CCN)Cc1c[nH]nc1-c1cc(Cl)cc(Cl)c1 [Compound 137] | 3.01 to 12 | 3.01 to 10 |  |
| CN(CCN)Cc1n[nH]cc1-c1ccc(OC(F)F)cc1 [Compound 138] | < 3 | > 10 |  |
| CN(CCN1CCCC1)Cc1c[nH]nc1-c1ccc(C#N)cc1 [Compound 139] | > 12 | > 10 |  |
| CN(CCN)Cc1c[nH]nc1-c1ccc2c(c1)NC(=O)CO2 [Compound 173] | > 12 |  |  |
